pEC50: −log10 of the molar value.

URAT1, sequence (Q96S37 whole entry, species assumed): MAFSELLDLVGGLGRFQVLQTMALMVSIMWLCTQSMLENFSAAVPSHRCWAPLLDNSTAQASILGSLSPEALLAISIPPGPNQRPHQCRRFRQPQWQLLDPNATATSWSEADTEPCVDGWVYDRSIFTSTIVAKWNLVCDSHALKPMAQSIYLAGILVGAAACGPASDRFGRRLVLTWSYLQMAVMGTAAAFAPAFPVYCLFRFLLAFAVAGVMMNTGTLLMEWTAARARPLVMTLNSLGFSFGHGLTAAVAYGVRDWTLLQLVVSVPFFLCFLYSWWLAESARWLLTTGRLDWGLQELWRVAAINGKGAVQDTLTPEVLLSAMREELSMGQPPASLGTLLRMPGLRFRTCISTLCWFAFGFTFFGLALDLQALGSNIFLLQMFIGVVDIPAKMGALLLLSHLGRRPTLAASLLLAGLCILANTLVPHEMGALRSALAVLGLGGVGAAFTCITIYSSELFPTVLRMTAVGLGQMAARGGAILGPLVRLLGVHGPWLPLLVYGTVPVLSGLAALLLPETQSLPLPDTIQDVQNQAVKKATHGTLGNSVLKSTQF

The target in the experiment is URAT1 (Homo sapiens (Human), UniProt Q96S37). Briefly: URAT1-model assay, 14C-uric acid transport in HEK293/URAT1-model cells. It is filed as cell-based. The settings on record: 14C-uric acid 125 μM, 10 minutes at room temperature, read-out: URAT1 EC50 Activity Ranking. On the procedure:
HEK293 human embryonic kidney cells (ATCC #CRL-1573) were propagated in EMEM tissue culture medium as described by ATCC in an atmosphere of 5% C02 and 95% air. Transfections of HEK293 cells with a model URAT1 construct was performed using L2000 transfection reagent (Invitrogen) as described by the manufacturer. After 24 h the transfected cells were split into 10 cm tissue culture plates and grown for 1 day after which the medium was replaced with fresh growth medium containing G418 (Gibco) at 0.5 mg/ml final concentration. Drug-resistant colonies were selected after approximately 8 days and then tested for ^14C-uric acid transport activity. The HEK293/URAT1-model cells are plated on Poly-D-Lysine Coated 96-well Plates at a density of 125,000 cells per well.
Cells were grown overnight (20-26 hours) at 37° C. in an incubator. Plates were allowed to come to room temperature and media was washed out with one wash of 250 μl of Wash Buffer (125 mM Na Gluconate, 10 mM Hepes ph 7.3). Compound or vehicle is added in assay buffer with ^14C-uric acid for a final concentration of 125 μM Uric Acid with a specific activity of 54 mCi/mmol. Assay Buffer is 125 mM Sodium Gluconate, 4.8 mM Potassium Gluconate, 1.2 mM Potassium phosphate, monobasic, 1.2 mM magnesium sulfate, 1.3 mM Ca Gluconate, 5.6 mM Glucose, 25 mM HEPES, pH 7.3. Plates were incubated at room temperature for 10 minutes then washed 3 times with 50 μl Wash Buffer and 3 times with 250 μl Wash Buffer. Microscint 20 Scintillation Fluid was added and plates were incubated overnight at room temperature to equilibrate. Plates are then read on the TopCount Plate Reader and an EC50 value generated. (See Enomoto et al, Nature, 2002, 417, 447-451 and Anzai et al, J. Biol. Chem., 2004, 279, 45942-45950.)
Broadly, the pEC50 is the negative decadic logarithm of the EC50, by convention in mol/L. For the molecule `CC(C)(Sc1cccnc1-c1ccc(C#N)cc1)C(=O)O` [Example 1A, 2-(2-(4-Cyanophenyl)pyridin-3-ylthio)-2-methylpropanoic acid], the pEC50 is 6.30 to 7.30.
To `CC(C)(Sc1ccncc1-c1ccc(C#N)cc1)C(=O)O` [Example 2A, 2-(3-(4-Cyanophenyl)pyridin-4-ylthio)-2-methylpropanoic acid] belongs 7.30 to 9.00.
To `CC(C)(Sc1ccncc1-c1ccc(O)cc1)C(=O)O` [Example 2AAA] belongs 7.30 to 9.00; to `CC(C)(Sc1ccncc1-c1ccc(Br)c2ccccc12)C(=O)O` [Example 2AA], 6.30 to 7.30; to `CC(C)(Sc1ccncc1-c1ccc(C#N)c(F)c1)C(=O)O` [Example 2BBB], 6.30 to 7.30.
To `Cc1ccc(-c2cnccc2SC(C)(C)C(=O)O)c2ccccc12` [Example 2BB] belongs 6.30 to 7.30.
Consider `Cc1ccc(-c2cnccc2SC(C)(C)C(=O)O)cc1` [Example 2CCC], for which the pEC50 is 6.30 to 7.30.
Then `CC(C)(Sc1ccncc1-c1ccc(S(N)(=O)=O)cc1)C(=O)O` [Example 2CC], with 6.30 to 7.30.
As to `CC(C)(Sc1ccncc1-c1ccc(C#N)c2ccccc12)C(=O)O` [Example 2C], the negative-log EC50 (pEC50) was 7.30 to 9.00.
To `CC(=O)Nc1ccc(-c2cnccc2SC(C)(C)C(=O)O)cc1` [Example 2DDD] belongs 6.30 to 7.30; to `CC(C)(Sc1ccncc1-c1cccc2ccccc12)C(=O)O` [Example 2DD], 6.30 to 7.30.
Then `CC(C)(Sc1ccncc1-c1ccc(S(=O)(=O)NC2CC2)cc1)C(=O)O` [Example 2D], with 6.30 to 7.30.
Then `CC(C)(Sc1ccncc1-c1ccc(S(C)(=O)=O)cc1)C(=O)O` [Example 2EEE], with 6.30 to 7.30.
Regarding `CC(C)(Sc1ccncc1-c1ccc(Cl)c(C(F)(F)F)c1)C(=O)O` [Example 2EE], the pEC50 was 6.30 to 7.30.
To `CC(C)(Sc1ccncc1-c1ccc(C#N)c(Cl)c1)C(=O)O` [Example 2FFF] belongs 7.30 to 9.00; to `CC(C)(Sc1ccncc1-c1cnc2ccccc2c1)C(=O)O` [Example 2F], 6.30 to 7.30.
Then `CC(C)(Sc1ccncc1-c1ccc(S)cc1)C(=O)O` [Example 2GGG], with 6.30 to 7.30; and `CC(C)(Sc1ccncc1-c1ccc(F)cc1)C(=O)O` [Example 2GG], with 6.30 to 7.30; and `CC(C)(Sc1ccncc1-c1cccc2ncccc12)C(=O)O` [Example 2H], with 6.30 to 7.30.
Then `CC(C)(Sc1ccncc1-c1ccc(C#N)cc1F)C(=O)O` [Example 2III], with 7.30 to 9.00.
Regarding `CC(C)(Sc1ccncc1-c1ccnc2ccccc12)C(=O)O` [Example 2II], the pEC50 was 6.30 to 7.30.
Then `CC(C)(Sc1ccncc1-c1ccc(C(N)=O)cc1F)C(=O)O` [Example 2JJJ], with 6.30 to 7.30; and `CC(C)(Sc1ccncc1-c1ccc(CO)cc1)C(=O)O` [Example 2JJ], with 7.30 to 9.00; and `N#Cc1ccc(-c2cnccc2SC2(C(=O)O)CCC2)c2ccccc12` [Example 2J], with 7.30 to 9.00.
To `CC(C)(Sc1ccncc1-c1ccc(C(N)=O)cc1)C(=O)O` [Example 2KK] belongs 6.30 to 7.30; to `CCc1ccc(-c2cnccc2SC(C)(C)C(=O)O)cc1` [Example 2K], 6.30 to 7.30.
To `COc1cncc(-c2cnccc2SC(C)(C)C(=O)O)c1` [Example 2MM] belongs 6.30 to 7.30; to `Cc1cc(C#N)ccc1-c1cnccc1SC(C)(C)C(=O)O` [Example 2NN], 7.30 to 9.00; to `CC(C)(Sc1ccncc1-c1ccc(C(F)(F)F)cc1)C(=O)O` [Example 2N], 6.30 to 7.30.
On to `CC(C)(Sc1ccncc1-c1ccc(Cl)cc1)C(=O)O` [Example 2O], for which the pEC50 was 7.30 to 9.00.
To `CC(C)(Sc1ccncc1-c1ccncc1)C(=O)O` [Example 2PP] belongs 7.30 to 9.00; to `CC(C)(Sc1ccncc1-c1ccc(Cl)cc1)C(=O)O` [Example 2P], 7.30 to 9.00; to `CSc1ccc(-c2cnccc2SC(C)(C)C(=O)O)cc1` [Example 2Q], 6.30 to 7.30.
To `CC(C)(Sc1ccncc1-c1ccc(Cl)c(Cl)c1)C(=O)O` [Example 2S] belongs 6.30 to 7.30; to `CC(C)(Sc1ccncc1-c1cccc(C#N)c1)C(=O)O` [Example 2TT], 6.30 to 7.30; to `COc1ccc(-c2cnccc2SC(C)(C)C(=O)O)cn1` [Example 2T], 6.30 to 7.30.
To `CC(C)(Sc1ccncc1-c1ccc(Br)cc1)C(=O)O` [Example 2UU] belongs 7.30 to 9.00.
Turning to `CC(C)(Sc1ccncc1-c1cncc2ccccc12)C(=O)O` [Example 2U], the pEC50 is 6.30 to 7.30.
`Cc1cc(C(N)=O)ccc1-c1cnccc1SC(C)(C)C(=O)O` [Example 2WW]: the pEC50 was 6.30 to 7.30.
To `CC(C)(Sc1ccncc1-c1ccc(F)c(F)c1)C(=O)O` [Example 2W] belongs 6.30 to 7.30; to `COc1ccc(-c2cnccc2SC(C)(C)C(=O)O)cc1` [Example 2XX], 6.30 to 7.30; to `CC(C)(Sc1ccncc1-c1ccc(F)c2ccccc12)C(=O)O` [Example 2X], 7.30 to 9.00.
In the case of `COc1cc(-c2cnccc2SC(C)(C)C(=O)O)ccc1C#N` [Example 2ZZ], the negative logarithm of the EC50 (pEC50) is 6.30 to 7.30.
To `CC(C)(Sc1cnccc1-c1ccc(C#N)cc1)C(=O)O` [Example 3A, 2-(4-(4-Cyanophenyl)pyridin-3-ylthio)-2-methylpropanoic acid] belongs 5.00 to 6.30; to `N#Cc1ccc(-c2cccnc2SC2(C(=O)O)CCC2)c2ccccc12` [Example 4C], 6.30 to 7.30; to `N#Cc1ccc(-c2nccnc2SCC(=O)O)c2ccccc12` [Example 5A, 2-(3-(4-Cyanonaphthalen-1-yl)pyrazin-2-ylthio)acetic acid], 5.00 to 6.30.
To `N#Cc1ccc(-c2cncnc2SCC(=O)O)c2ccccc12` [Example 6A, 2-(5-(4-Cyanonaphthalen-1-yl)pyrimidin-4-ylthio)acetic acid] belongs 5.00 to 6.30; to `N#Cc1ccc(-c2ncncc2SCC(=O)O)c2ccccc12` [Example 7A, 2-(4-(4-Cyanonaphthalen-1-yl)pyrimidin-5-ylthio)acetic acid], 5.00 to 6.30.

The values are drawn from patent US10919858B2, “Thioacetate compounds, compositions and methods of use” (ARDEA BIOSCIENCES, INC., priority 2010, dated 2021).
